System: LoVo cell line
Assay: Tumor growth inhibition and survival (ILS) in mice implanted with LoVo cell line
Format: in vivo
Description: The LoVo cell line was selected for implantation in mice as it is a p53 wildtype cell line that lacks MDM2 amplification or overexpression and therefore is felt to be more reflective of clinical reality of the colorectal cancer patient population of interest.
The following treatment groups were used in the study
Efficacy data was graphically represented as the mean tumor volume±standard error of the mean (SEM). In addition, tumor volumes of treated groups were presented as percentages of tumor volumes of the control groups (% T/C), using the formula: 100×((T-T0)/(C-C0)), where T represented mean tumor volume of a treated group on a specific day during the experiment, T0 represented mean tumor volume of the same treated group on the first day of treatment; C represented mean tumor volume of a control group on the specific day during the experiment, and C0 represented mean tumor volume of the same treated group on the first day of treatment.
Tumor volume (in cubic millimeters) was calculated using the ellipsoid formula: (D×(d^2))/2, where “D” represents the large diameter of the tumor and “d” represents the small diameter. In some cases, tumor regression and/or percent change in tumor volume was calculated using the formula: ((T-T0)/T0)×100, where ‘T’ represents mean tumor volume of the treated group at a particular day, and ‘T0’ represents mean tumor volume of the same treated group at initiation of treatment.
Statistical analysis was determined by the rank sum test and One Way Anova and a post-hoc Bonferroni t-test (SigmaStat, version 2.0, Jandel Scientific, San Francisco, Calif., USA). Differences between groups were considered to be significant when the probability value (p) was ≦0.05.
For survival assessment, the percent of increased life space (ILS) was calculated as: 100×[(median survival day of treated group−median survival day of control group)/median survival day of control group]. Median survival was determined utilizing Kaplan Meier survival analysis. Survival in treated groups was statistically compared with the vehicle group and survival comparisons were done between groups using the log-rank test (Graph Pad Prism, La Jolla, Calif., USA). Differences between groups were considered significant when the probability value (p) was ≦0.05.

[1] = Capecitabine 200 mg/kg qd × 14 po
[2] = Capecitabine 400 mg/kg qd × 14 po

Row | Compound | % Increased Life Span (ILS) [1] [%] | Mean Tumor Volume [1] [cubic millimeters] | % Inhibition (EOS) (TGI) [1] [%] | % T/C (EOS) [1] [%] | % Increased Life Span (ILS) [2] [%] | Mean Tumor Volume [2] [cubic millimeters] | % Inhibition (EOS) (TGI) [2] [%] | % T/C (EOS) [2] [%] | % Increased Life Span (ILS) (Cpd. A 80 mg/kg qd × 5 po) [%] | Mean Tumor Volume (Cpd. A 80 mg/kg qd × 5 po) [cubic millimeters] | % Inhibition (EOS) (TGI) (Cpd. A 80 mg/kg qd × 5 po) [%] | % T/C (EOS) (Cpd. A 80 mg/kg qd × 5 po) [%] | % Increased Life Span (ILS) (Cpd. A 100 mg/kg qweekly×3 po) [%] | Mean Tumor Volume (Cpd. A 100 mg/kg qweekly×3 po) [cubic millimeters] | % Inhibition (EOS) (TGI) (Cpd. A 100 mg/kg qweekly×3 po) [%] | % T/C (EOS) (Cpd. A 100 mg/kg qweekly×3 po) [%]
1 | CCCCCOC(=O)Nc1nc(=O)n([C@@H]2O[C@H](C)[C@@H](O)[C@H]2O)cc1F [Capecitabine, 5′-deoxy-5-fluoro-N-[(pentyloxy)-carbonyl]-cytidine] | 40 | 130.14 | 72 | 28 | 49 | 130.66 | 88 | 12 | – | – | – | – | – | – | – | –
2 | COc1cc(C(=O)O)ccc1NC(=O)[C@@H]1N[C@@H](CC(C)(C)C)[C@](C#N)(c2ccc(Cl)cc2F)[C@H]1c1cccc(Cl)c1F [Compound A, 4-{[(2R,3S,4R,5S)-4-(4-Chloro-2-fluoro-phenyl)-3-(3-chloro-2-fluoro-phenyl)-4-cyano-5-(2,2-dimethyl-propyl)-pyrrolidine-2-carbonyl]-amino}-3-methoxy-benzoic acid] | – | – | – | – | – | – | – | – | 23 | 130.39 | 62 | 38 | 17 | 130.11 | 55 | 45

Source: patent US20160129033A1, “COMBINATION OF RO5503781 AND CAPECITABINE FOR CANCER THERAPY” (HOFFMANN-LA ROCHE INC., priority 2013, published 2016)
